In patent US6313170A, “L-threonate ferrous, as well as pharmaceutical composition and use for improving and treating human anemia thereof” (priority 1997, dated 2001):
Where two headings read alike, the source gives them in different places.

Key:
Blood-loss Anemia Model = experiment: Blood-loss anemia model, rats; settings: for Blood hemochrome content / GPC (blood granulophilocyte) / RBC: n=10;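 as to all read-outs here: male Wistar rats made anemic by repeated orbital bloodletting, kept on iron-low diet with deionized water while dosed, compared against untreated anemic model and normal-diet control groups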
Procedure: Ferrous gluconate, the positive control drug, yellow-green powder and 11% ferrous content, was purchased from Ganjian Pharmaceutical Company of Jianxi Province. Ferrous fumarate, 6.4% ferrous content, was purchased from the 18th Pharmaceutical Company of Shanghai. All drugs were diluted by distilled water.
7 groups were prepared as hemolytic anemia groups and one group was taken as normal control group supplemented with normal diet and water. The hemolytic anemia model was prepared by subjecting rats to inner canthus bloodletting of right eye through capillary glass tube. The first bloodletting content was 2.0 ml for each rat and in that time the range of hemochrome for rats was from 9.78 to 10.65 g %. Two days later, the second bloodletting (2 ml/rat) was carried out with the hemochrome values of 7.40-7.88 g %. The total bloodletting volume for each rat was 4 ml and was 32.9% in volume of the whole blood circulating the body.
While one hemolytic anemia group and one normal control group were taken as reference groups compared with other groups left. These two groups' rats were killed and the blood parameters were recorded. Other six groups now were randomly divided into three treatment groups of ferrous L-threonate with high, middle and low dosages respectively, two positive drugs control groups of ferrous gluconate and ferrous fumarate and one model group. At the end of 12 days and 18 days experimental periods, 5 and 10 rats of each group were killed correspondingly. During the course of experiment, the variations of hemochrome content were examined with 6 days interval.
While Element ferrous content 8.64 mg/kg as ferrous gluconate or ferrous fumarate was for positive drug control group. The groups for blood-loss anemia were provided iron-low diet and deionized water during the period of the administration of drugs, while the normal animal control group was provided normal diet and deionized water.

IDA for Children = settings: for FEP / RBC / SF / Hb: tablets 7.5 mg Fe + 30 mg vitamin C
Procedure: Subjects: Thirty school-age children aged from 8 to 13 years of Haerbin city of China.
Methods: Blood samples of 10 μl from ear and 5 ml from arm vein for each patient were collected for measurement.
(1) Measurement of RBC: 10 μl blood sample was added to 2 ml diluent and the mixture was shaken completely. One drop of this suspending solution taken by circle glass bar was poured into counting cell. RBC was countered through microscope by laying counting plate on the microstat.
(2) Measurement of HB: The ferric cyanide method was used to determine the HB. 10 μl ear blood sample was added to 5 ml acid diluent to obtain the completely mixed solution by shaking. HB was measured by SH hemoglobinometer manufactured by Huauang Instrument Company of Jianshu Province. Ferric cyanide was purchased from Medical Examination Institute of Shanghai.
(3) Measurement of FEP: To add 0.05 ml whole blood sample anticoagulated by heparin to 3.5 ml of acid anhydrous ethyl alcohol, the mixture was shaken for 5 min and then was centrifugalized with speed of 3000 r/min. The centrifugate of mixture was used for the measurement of fluorometric method (400 nm for exciting optical filter and 600 nm for emitting optical filter).
According to formula given below, the FEP can be calculated. [formula]
Where Fu and PCV represent fluorescence extent and hematocrit, respectively.
To centifugalized 2 ml whole blood sample, the upper solution was used for measurement of SF through the method of radio-immune competition-inhibition program.
Among these 62 IDA patients, 30 children were randomly selected as treatment group of ferrous L-threonate.
Another 30 children with IDA were selected from another prime school with the same diagnosing standards and were established as control group.
Observation time for treatment group and control group was 30 days period and during that period, there were no any intervention on children's activity and food.
(3) Dosages: Each child of treatment group was administered ferrous L-threonate tablets twice a day, one tablet each time. While normal control group was treated with placebo by the same method.

[1] = 8.64 mg Fe/kg (middle dosage / positive controls), 12 days
[2] = 8.64 mg Fe/kg (middle dosage / positive controls), 18 days
[3] = high dosage, 17.28 mg Fe/kg, 12 days
[4] = high dosage, 17.28 mg Fe/kg, 18 days
[5] = low dosage, 4.32 mg Fe/kg, 12 days
[6] = low dosage, 4.32 mg Fe/kg, 18 days
[7] = after treatment (30 days), twice a day

ferrous L-threonate
Blood hemochrome content (Blood-loss Anemia Model; 8.64 mg Fe/kg (middle dosage / positive controls), 6 days after treatment): 8.35 ± 0.21 | Blood hemochrome content (Blood-loss Anemia Model; 8.64 mg Fe/kg (middle dosage / positive controls), 12 days after treatment): 10.67 ± 0.37 | GPC (blood granulophilocyte) (Blood-loss Anemia Model; [1]): 12.58% | RBC (Blood-loss Anemia Model; [1]): 4.81e+12 L⁻¹ | Blood hemochrome content (Blood-loss Anemia Model; 8.64 mg Fe/kg (middle dosage / positive controls), 18 days after treatment): 12.14 ± 0.27 | GPC (blood granulophilocyte) (Blood-loss Anemia Model; [2]): 8.44% | RBC (Blood-loss Anemia Model; [2]): 5.21e+12 L⁻¹ | Blood hemochrome content (Blood-loss Anemia Model; 8.64 mg Fe/kg (middle dosage / positive controls), before treatment): 7.40 ± 0.54 | Blood hemochrome content (Blood-loss Anemia Model; high dosage, 17.28 mg Fe/kg, 6 days after treatment): 8.70 ± 0.43 | Blood hemochrome content (Blood-loss Anemia Model; high dosage, 17.28 mg Fe/kg, 12 days after treatment): 11.01 ± 0.34 | GPC (blood granulophilocyte) (Blood-loss Anemia Model; [3]): 10.04% | RBC (Blood-loss Anemia Model; [3]): 5.67e+12 L⁻¹ | Blood hemochrome content (Blood-loss Anemia Model; high dosage, 17.28 mg Fe/kg, 18 days after treatment): 12.40 | GPC (blood granulophilocyte) (Blood-loss Anemia Model; [4]): 7.84% | RBC (Blood-loss Anemia Model; [4]): 5.84e+12 L⁻¹ | Blood hemochrome content (Blood-loss Anemia Model; high dosage, 17.28 mg Fe/kg, before treatment): 7.88 ± 0.28 | Blood hemochrome content (Blood-loss Anemia Model; low dosage, 4.32 mg Fe/kg, 6 days after treatment): 8.00 ± 0.42 | Blood hemochrome content (Blood-loss Anemia Model; low dosage, 4.32 mg Fe/kg, 12 days after treatment): 10.20 ± 0.49 | GPC (blood granulophilocyte) (Blood-loss Anemia Model; [5]): 13.12% | RBC (Blood-loss Anemia Model; [5]): 4.242e+12 L⁻¹ | Blood hemochrome content (Blood-loss Anemia Model; low dosage, 4.32 mg Fe/kg, 18 days after treatment): 11.26 ± 0.79 | GPC (blood granulophilocyte) (Blood-loss Anemia Model; [6]): 8.91% | RBC (Blood-loss Anemia Model; [6]): 4.76e+12 L⁻¹ | Blood hemochrome content (Blood-loss Anemia Model; low dosage, 4.32 mg Fe/kg, before treatment): 7.61 ± 0.53 | effect on treating IDA compared with both ferrous gluconate and ferrous fumarate (Blood-loss Anemia Model; same ferrous dosage): better effects on treating IDA compared with both ferrous gluconate and ferrous fumarate | improvement and cure of anemia compared with ferrous gluconate and ferrous fumarate (Blood-loss Anemia Model; summary statement covering hemolytic anemia, blood-loss anemia and nutritional IDA): can significantly improve and cure hemolytic anemia, blood-loss anemia and nutritional IDA | variations of Hb, SF and RBC compared with control group (IDA for Children; 30 days of treatment, P<0.01): significantly better compared with those of control group (P<0.01) | FEP (IDA for Children; after treatment (30 days)): 445.1 µg/L | RBC (IDA for Children; [7]): 401.5 ± 12.4 10^4 /mm^3 | SF (IDA for Children; [7]): 17.01 ± 1.99 µg/L | Hb (IDA for Children; before treatment, twice a day): 104.8 ± 6.1 g/L | RBC (IDA for Children; before treatment, twice a day): 387 ± 6.67 10^4 /mm^3 | SF (IDA for Children; before treatment, twice a day): 12.45 ± 1.50 µg/L | number of children with Hb > 120 g/L and ΔHb > 10 g/L (IDA for Children; n=30, tablets, 30 days): 17 | number of children with no effectiveness (IDA for Children; n=30, tablets, 30 days): 6 | number of children with ΔHb > 5 g/L (IDA for Children; n=30, tablets, 30 days): 7 | share of children with Hb > 120 g/L and ΔHb > 10 g/L (IDA for Children; n=30, tablets, 30 days): 56.7% | share of children with no effectiveness (IDA for Children; n=30, tablets, 30 days): 20.0% | share of children with ΔHb > 5 g/L (IDA for Children; n=30, tablets, 30 days): 23.3% | FEP (IDA for Children; printed under after treatment (30 days)): 120.4 ± 11.2 µg/L | Hb (IDA for Children; printed under before treatment): 669.1 ± 72.0 g/L | effective rate of improving the case of IDA for children (IDA for Children; tablets, 30 days): 80% | variations of Hb, SF and RBC before and after treatment (IDA for Children; treatment group, P<0.01): understandingly significant difference (P<0.01) | toxicity grade (rat; acute toxicity, rat): belongs to the grade of very lower | LD50 (rat; female rat): 3160 mg/kg | LD50 (rat; male rat): 3690 mg/kg | safety in use (rat; rat, in vivo): used safely and without toxicity
